Results taken from the NIST ThermoML archive (doi:10.1016/j.jct.2007.01.012).
± gives the expanded uncertainty stated by the source.

Details: 101.33 kPa, Liquid

| mass density (298.15 K) | mass density (303.15 K) | mass density (313.15 K) | SMILES |
| --- | --- | --- | --- |
| 786.7 ± 1.4 kg/m3 | 782 ± 1.4 kg/m3 | 772.7 ± 1.4 kg/m3 | CO [methanol] |
| 1236.5 ± 2.9 kg/m3 | 1232.6 ± 2.9 kg/m3 | 1225.6 ± 2.8 kg/m3 | CCn1cc[n+](C)c1.COCCOCCOS(=O)(=O)[O-] [1-ethyl-3-methylimidazolium 2-(2-methoxyethoxy) ethylsulfate] |
